According to US20220273683A1, “BORON-CONTAINING SMALL MOLECULES” (Bill & Melinda Gates Foundation, priority 2016, published 2022):
Converted amounts (≈) assume the structure as drawn.

Experiments:
Assay type in all cases: cell-based
[1] = tested on: Staphylococcus aureus, MRSA (ATCC 33591); experiment: Antibacterial MIC assay (microbroth dilution, CLSI); conditions: 35° C., 16-20 hours; for MIC: Staphylococcus aureus
Outline: (§1)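 Microbroth dilution per CLSI M07-A10/M100-S25 in cation-adjusted Mueller-Hinton broth, with 3% lysed horse blood added for S. pneumoniae. Inoculum from a 0.5 McFarland direct colony suspension, diluted to 5×10^5 CFU/mL in the well. Compounds were 2-fold serially diluted; MIC read against a growth control.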

[2] = tested on: Streptococcus pneumoniae (ATCC 49619); experiment: as above; conditions: 35° C., 16-20 hours; for MIC Streptococcus pneumoniae (ATCC 49619): 3% lysed horse blood; for MIC: Streptococcus pneumoniae, ATCC49619, 3% lysed horse blood
Outline: as §1

[3] = tested on: Wolbachia pipientis in C6/36 cell line; experiment: Anti-Wolbachia high-content assay; conditions: C6/36 (wAlbB) cells, 7 days at 26° C., 50% reduction of Wolbachia
From the text: C6/36 cells (ECACC #89051705, derived from Aedes albopictus larvae) were infected with Wolbachia pipientis derived from the supernatant of cultured A. albopictus Aa23 cells to create a stably Wolbachia-infected cell line C6/36 (wAlbB). This cell line was subpassaged 6-8 days prior to plating out at a density of 2000 viable cells per well in a 384-well CellCarrier plate suspended in Liebovitz media supplemented with 20% fetal bovine serum, 2% tryptose phosphate broth and 1% non-essential amino acids. Compounds were dissolved and diluted in DMSO, and compound solution was added to each well to provide a final DMSO concentration <1% and a total volume of 100 μL per well. Following 7 days of sterile incubation at 26° C., staining media containing SYTO 11 DNA dye was added to each well. After 15 minutes, all media was removed from each well and fresh media (no stain) was added. Imaging of each well was accomplished using a Perkin Elmer Operetta high-content imaging system. Five fields per well were imaged using a confocal 60× objective with the Fluorescein filter (excitation filter: 460-490 nm; emission filter: 500-550 nm). Images were analyzed using the Perkin Elmer Harmony software to score each intact cell on the basis of texture complexity of the cytoplasm. Full details can be found in: […]. Biomol. Screening, 2015, 20, […]. Compound sample wells were analyzed and normalized (along with the positive controls) against the vehicle (untreated) control to give a percentage reduction of Wolbachia-infected cells. Using the cell number analysis, compounds with a host cell number amounting to less than 50% of the vehicle control were classified as toxic and retested at a reduced compound concentration. Dose-response curves were generated with percentage reduction of Wolbachia-infected cells versus compound concentration, using 5-10 compound serial dilutions. Data were analyzed and compound EC50 is determined using a 4 parameter logistic nonlinear regression model.

C[C@@H]1CC[C@@]23CCC(=O)[C@H]2[C@]1(C)[C@H](OC(=O)COc1ccc2c(c1F)B(O)OC2)C[C@@]1(C)CCC(=O)O[C@H]1[C@@H]3C [Compound 1, (4aR,6R,7R,7aR,10aS,11R,11aS,14R)-4a,7,11,14-tetramethyl-2,8-dioxododecahydro-2H-7,10a-propanocyclopenta[6,7]cycloocta[1,2-b]pyran-6-yl2-((7-fluoro-1-hydroxy-1,3-dihydrobenzo[c][1,2]oxaborol-6-yl)oxy)acetate]
MIC Staphylococcus aureus, MRSA (ATCC 33591) [1]: B (0.5-2 is B)
MIC Streptococcus pneumoniae (ATCC 49619) [2]: C (4-32 is C)
EC50 [3]: > 1000 nM

C[C@@H]1CC[C@@]23CCC(=O)[C@H]2[C@]1(C)[C@H](OC(=O)COc1ccc2c(c1F)B(O)OC2)C[C@@](C)(CCC(N)=O)[C@@H](O)[C@@H]3C [Compound 2, (3aR,4R,5R,7R,8S,9R,9aS,12R)-7-(3-amino-3-oxopropyl)-8-hydroxy-4,7,9,12-tetramethyl-3-oxodecahydro-4,9a-propanocyclopenta[8]annulen-5-yl2-((7-fluoro-1-hydroxy-1,3-dihydrobenzo[c][1,2]oxaborol-6-yl)oxy)acetate]
MIC Staphylococcus aureus, MRSA (ATCC 33591) [1]: C (4-32 is C)
MIC Streptococcus pneumoniae (ATCC 49619) [2]: C (4-32 is C)
EC50 [3]: > 1000 nM

CNC(=O)CC[C@]1(C)C[C@@H](OC(=O)COc2ccc3c(c2F)B(O)OC3)[C@]2(C)[C@H](C)CC[C@]3(CCC(=O)[C@H]32)[C@@H](C)[C@@H]1O [Compound 3, (3aR,4R,5R,7R,8S,9R,9aS,12R)-8-hydroxy-4,7,9,12-tetramethyl-7-(3-(methylamino)-3-oxopropyl)-3-oxodecahydro-4,9a-propanocyclopenta[8]annulen-5-yl2-((7-fluoro-1-hydroxy-1,3-dihydrobenzo[c][1,2]oxaborol-6-yl)oxy)acetate]
MIC Staphylococcus aureus, MRSA (ATCC 33591) [1]: B (0.5-2 is B)
MIC Streptococcus pneumoniae (ATCC 49619) [2]: B (0.5-2 is B)
EC50 [3]: > 1000 nM

CCNC(=O)CC[C@]1(C)C[C@@H](OC(=O)COc2ccc3c(c2F)B(O)OC3)[C@]2(C)[C@H](C)CC[C@]3(CCC(=O)[C@H]32)[C@@H](C)[C@@H]1O [Compound 4, (3aR,4R,5R,7R,8S,9R,9aS,12R)-7-(3-(ethylamino)-3-oxopropyl)-8-hydroxy-4,7,9,12-tetramethyl-3-oxodecahydro-4,9a-propanocyclopenta[8]annulen-5-yl2-((7-fluoro-1-hydroxy-1,3-dihydrobenzo[c][1,2]oxaborol-6-yl)oxy)acetate]
MIC Staphylococcus aureus, MRSA (ATCC 33591) [1]: B (0.5-2 is B)
MIC Streptococcus pneumoniae (ATCC 49619) [2]: B (0.5-2 is B)
EC50 [3]: 283 nM

CCCCNC(=O)CC[C@]1(C)C[C@@H](OC(=O)COc2ccc3c(c2F)B(O)OC3)[C@]2(C)[C@H](C)CC[C@]3(CCC(=O)[C@H]32)[C@@H](C)[C@@H]1O [Compound 5, (3aR,4R,5R,7R,8S,9R,9aS,12R)-7-(3-(butylamino)-3-oxopropyl)-8-hydroxy-4,7,9,12-tetramethyl-3-oxodecahydro-4,9a-propanocyclopenta[8]annulen-5-yl2-((7-fluoro-1-hydroxy-1,3-dihydrobenzo[c][1,2]oxaborol-6-yl)oxy)acetate]
MIC Staphylococcus aureus, MRSA (ATCC 33591) [1]: B (0.5-2 is B)
MIC Streptococcus pneumoniae (ATCC 49619) [2]: B (0.5-2 is B)
EC50 [3]: 305 nM

C[C@@H]1CC[C@@]23CCC(=O)[C@H]2[C@]1(C)[C@H](OC(=O)COc1ccc2c(c1F)B(O)OC2)C[C@@](C)(CCC(=O)NC1CC1)[C@@H](O)[C@@H]3C [Compound 6, (3aR,4R,5R,7R,8S,9R,9aS,12R)-7-(3-(cyclopropylamino)-3-oxopropyl)-8-hydroxy-4,7,9,12-tetramethyl-3-oxodecahydro-4,9a-propanocyclopenta[8]annulen-5-yl2-((7-fluoro-1-hydroxy-1,3-dihydrobenzo[c][1,2]oxaborol-6-yl)oxy)acetate]
MIC Staphylococcus aureus, MRSA (ATCC 33591) [1]: B (0.5-2 is B)
MIC Streptococcus pneumoniae (ATCC 49619) [2]: B (0.5-2 is B)
EC50 [3]: 392 nM

COC(=O)/C=C/[C@]1(C)C[C@@H](OC(=O)COc2ccc3c(c2F)B(O)OC3)[C@]2(C)[C@H](C)CC[C@]3(CCC(=O)[C@H]32)[C@@H](C)[C@@H]1O [Compound 12, methyl (E)-3-((3aR,4R,5R,7S,8S,9R,9aS,12R)-5-(2-((7-fluoro-1-hydroxy-1,3-dihydrobenzo[c][1,2]oxaborol-6-yl)oxy)acetoxy)-8-hydroxy-4,7,9,12-tetramethyl-3-oxodecahydro-4,9a-propanocyclopenta[8]annulen-7-yl)acrylate]
MIC [1]: < 0.25 µg/mL
MIC [2]: < 0.25 µg/mL
EC50 ([3]; Wolbachia pipientis): 81 nM

C[C@@H]1CC[C@@]23CCC(=O)[C@H]2[C@]1(C)[C@H](OC(=O)COc1ccc2c(c1F)B(O)OC2)C[C@@](C)(/C=C/C(=O)O)[C@@H](O)C3 [Compound 13, (E)-3-((3aR,4R,5R,7S,8S,9aS,12R)-5-(2-((7-fluoro-1-hydroxy-1,3-dihydrobenzo[c][1,2]oxaborol-6-yl)oxy)acetoxy)-8-hydroxy-4,7,12-trimethyl-3-oxodecahydro-4,9a-propanocyclopenta[8]annulen-7-yl)acrylic acid]
MIC [1]: 4 to 32 µg/mL (≈ 7.16 to 57.3 µM)
MIC [2]: > 64 µg/mL
EC50 ([3]; Wolbachia pipientis): > 1000 nM

CC[C@]1(C)C[C@@H](OC(=O)COc2cc(CN)c3c(c2)B(O)OC3)[C@]2(C)[C@H](C)CC[C@]3(CCC(=O)[C@H]32)[C@@H](C)[C@@H]1O [Compound 20, (3aR,4R,5R,7R,8S,9R,9aS,12R)-7-ethyl-8-hydroxy-4,7,9,12-tetramethyl-3-oxodecahydro-4,9a-propanocyclopenta[8]annulen-5-yl2-((4-(aminomethyl)-1-hydroxy-1,3-dihydrobenzo[c][1,2]oxaborol-6-yl)oxy)acetate]
MIC Staphylococcus aureus, MRSA (ATCC 33591) [1]: A (MIC of ≤0.25 is A)
MIC Streptococcus pneumoniae (ATCC 49619) [2]: B (0.5-2 is B)
EC50 [3]: 101 nM

CNC[C@H](O)[C@]1(C)C[C@@H](OC(=O)COc2ccc3c(c2F)B(O)OC3)[C@]2(C)[C@H](C)CC[C@]3(CCC(=O)[C@H]32)[C@@H](C)[C@@H]1O [Compound 28, (3aR,4R,5R,7R,8S,9R,9aS,12R)-8-hydroxy-7-((R)-1-hydroxy-2-(methylamino)ethyl)-4,7,9,12-tetramethyl-3-oxodecahydro-4,9a-propanocyclopenta[8]annulen-5-yl2-((7-fluoro-1-hydroxy-1,3-dihydrobenzo[c][1,2]oxaborol-6-yl)oxy)acetate]
MIC Staphylococcus aureus, MRSA (ATCC 33591) [1]: D (≥64 is D)
MIC Streptococcus pneumoniae (ATCC 49619) [2]: D (≥64 is D)
EC50 [3]: > 1000 nM

C[C@@H]1CC[C@@]23CCC(=O)[C@H]2[C@]1(C)[C@H](OC(=O)COc1ccc2c(c1F)B(O)OC2)C[C@@](C)(CNS(C)(=O)=O)[C@@H](OS(C)(=O)=O)[C@@H]3C [Compound 49, (3aR,4R,5R,7S,8S,9R,9aS,12R)-4,7,9,12-tetramethyl-7-(methylsulfonamidomethyl)-8-((methylsulfonyl)oxy)-3-oxodecahydro-4,9a-propanocyclopenta[8]annulen-5-yl2-((7-fluoro-1-hydroxy-1,3-dihydrobenzo[c][1,2]oxaborol-6-yl)oxy)acetate]
MIC Staphylococcus aureus, MRSA (ATCC 33591) [1]: C (4-32 is C)
MIC Streptococcus pneumoniae (ATCC 49619) [2]: D (≥64 is D)
EC50 [3]: > 1000 nM
